Test results from patent publication US10731222B2 (RNA Diagnostics Inc., priority 2013, dated 2020).

What was measured:
[1] = system: A2780 ovarian cancer cells; experiment: RNA disruption in drug-treated A2780 cells (Agilent Bioanalyzer electropherogram, RDI); assay type: cell-based, human; conditions: for response of cells in culture to the agent: dose- and time-dependent; for effect of caspase inhibitor on docetaxel-induced RNA disruption: 10 uM inhibitor with 0.2 uM docetaxel
Method: RNA was isolated from ovarian cancer cell line A2780 cells which had been treated with 10 μM docetaxel in 50% media or 20 μM epirubicin, each in 50% media. Cells were treated with the chemotherapeutic for 24 hours at 37° C. Isolated RNA was separated by microcapillary electrophoresis using the Agilent 2100 Bioanalyzer.
Cells were plated and treated with docetaxel concentrations ranging from 0.001-40 μM for 24 to 72 hours to assess the effect on cell number, RNA content, and integrity (measured using a Bioanalyzer 2100 from Agilent Technologies, Inc.).
A2780 cells treated for up to 72 hours with docetaxel at 0.005 uM and 0.2 uM, were analyzed for the amount of RNA per cell. RNA was isolated and electophoretically separated using an Agilent Bioanalyzer.
RNA was isolated and electrophoretically separated on an Agilent Bioanalyzer. As shown in FIG. 24D bands appeared just below the 28S (e.g. intermediate) and 18S bands (e.g. low banding region) at 0.005 uM and peaked at 0.2 uM.
A time course experiment was conducted in A2780 cells. Cells were treated for up to 72 hours with docetaxel at 0.005 uM and 0.2 uM. RNA was isolated and run on an Agilent Bioanalyzer.
The effect of a caspase inhibitor on RNA integrity changes was next assessed. Cells were treated with or without docetaxel at a concentration of 0.2 uM in the presence or absence of the caspase inhibitor Q-DEVD-OPH (Biovision Laboratories) at a concentration of 10 uM.

[2] = system: Colon adenocarcinoma cells SW480; experiment: RNA disruption in colon adenocarcinoma cells SW480; assay type: cell-based; conditions: 72 hr
Method: Colon adenocarcinoma cells SW480 were incubated with Epirubicin, a DNA synthesis inhibitor. RNA was isolated from the cells and analyzed using an Agilent Bioanalyzer.

[3] = system: docetaxel-resistant A2780DXL cells; experiment: Clonogenic assay, docetaxel-resistant cells; assay type: cell-based; conditions: clonogenic assay
Description: (§1) A docetaxel A2780 resistant cell line was made as described in Li et al., Int. J. Mol. Med 2004 14(20): 257-264.
RDA like clonogenic assays can be used to identify drugs that are cytotoxic (FIG. 24C iv). […] The cell lines have widely differing sensitivity to docetaxel in a clonogenic assay, with IC50 values differing by over three orders of magnitude.

[4] = system: docetaxel-resistant A2780DXL cells; experiment: RNA disruption in docetaxel-resistant cells; assay type: cell-based; conditions: in combination with docetaxel
Method: as §1
A time course experiment was conducted. Sensitive parental and docetaxel resistant A2780 cells were treated with docetaxel for 24 hours. RNA was isolated and run on an Agilent Bioanalyzer.
The a\Ability of RDA to detect potentiators of docetaxel (Dxl) sensitivity. […] Thus, RDA may be used to screen for potentiators of chemotherapy drug cytotoxicity.

[5] = system: Colon adenocarcinoma cells LS174T; experiment: RNA disruption in colon adenocarcinoma cells LS174T; assay type: cell-based; conditions: 24 hr
Method: Colon adenocarcinoma cells LS174T were incubated with Sunitinib, a receptor tyrosine kinase inhibitor. RNA was isolated from the cells and analyzed using an Agilent Bioanalyzer.
RNA was isolated from the cells and analyzed using an Agilent Bioanalyzer.

[6] = system: locally advanced breast cancer; experiment: Immunohistochemistry of tumour markers (Ki67, CD31, p53, bcl-2, caspase 3) before and 14 days after single-dose ZA, Group 1; assay type: in vivo, human
Method: Enrolled patients received 4 mg single dose of ZA (Zometa®, Novartis, Milan, Italy) before starting any treatment (biological window of 14 days) (FIG. 9). Markers of tumor proliferation/death were tested immunohistochemically and at ATP and RNA level in tumour specimens obtained before and after ZA administration in those patients with locally advanced breast cancer (Group 1) and the count of circulating tumour cells (CTCs) by CellSearch System along with serological markers as marker of tumor dissemination were carried out in metastatic patients (Group 2).
(§2) In patients with locally advanced disease, the biological evaluations were performed at baseline on the diagnostic biopsy and repeated after 14 days from ZA administration on a second tru-cut biopsy (Group 1) whereas in patients with bone metastatic disease, CTCs counts along with serological markers were performed before ZA administration, at 48 hours and at 14 days after treatment (Group 2) (FIG. 9).
Immunohistochemical evaluation was performed on formalin-fixed paraffin-embedded tumor samples obtained at diagnosis and at 14th days on tru-cut. ER, PgR, overexpression of HER2 and Ki67, CD31 with p53 and bcl-2 staining were performed at the Pathology Unit of the Azienda Ospedaliera-Istituti Ospitalieri of Cremona (Italy). The immunohistochemical methodology is fully described elsewhere. The Caspase 3 immunohistochemistry was performed at the Pathology Unit of Peter MacCallum Cancer Centre (Australia); the used methodology followed that reported by others evaluating protein expression in breast tumours.

[7] = system: locally advanced breast cancer; experiment: ATP content of tumour biopsies (ATPlite luminescence), Group 1; assay type: in vivo, human; conditions: tru-cut after ZA; 230.93 at incisional biopsy; 24 matched pairs; p=0.79
Method: ATP content was assayed as previously described using a luminescence assay system (ATPlite, PerkinElmer) according to manufacturing instructions. Briefly, frozen tumor biopsies were minced and homogenized in ice-cold lysis solution provided with the kit using a homogenizer. Membranes and cellular debris were eliminated by centrifuging at 12,000×g for 10 min at 4° C. Protein concentrations were determined by DC protein-assay (Bio-Rad Laboratories). Equal amounts of tissue proteins from each sample (30 μg/50 μl of lysis solution) were incubated with 50 μl of luciferine/luciferase substrate solution and analyzed for ATP content by using a Luminescence Counter (Enspire, PerkinElemer). ATP concentrations were calculated on the basis of an ATP standard-curve and expressed as pmol/mg protein.

[8] = system: locally advanced breast cancer; experiment: RNA Disruption Index (RDI) of tumour samples before and 14 days after ZA, Group 1; assay type: in vivo, human; conditions: 14 days after single ZA; baseline 0.63; 14 matched pairs; p<0.0076
Method: Tumour samples were shipped in a RNA preservative to Rna Diagnostics (Sudbury, Canada) where they were sub-sectioned to reduce the amount of tissue for RNA isolation based on gross pathology. RNA was then isolated using the Qiagen miRNeasy kit from each portion of the tumour and the RNA analysed using an Agilent Bioanalyzer 2100. […] Mean RDI values were calculated for each tumour sample.

[9] = system: circulating tumour cells (CTCs); experiment: Circulating tumor cells (CTCs) assay, CellSearch, Group 2; assay type: in vivo, human; conditions: for median CTC/M30+ve: basal 2
Method: as §2, with “Patients received a single dose of 4 mg diluted in 100 ml saline, intravenously, in about 15 mins of ZA without any other active concomitant treatments (i.e chemotherapy or endocrine therapy) (Groups 1 and 2). In” for “In”
The enumeration of CTC in whole blood was done by the CellSearch System according to manufacturers instruction as described by Cristofanilli et al.. The identification and count of CTCs was performed using the CellSearch Analyzer, a semi-automated fluorescence-based microscopy system that permits computer-generated reconstruction of cellular images. The criteria used are round or oval morphology, a DAPI positivity, positivity for cytokeratin and negative staining for CD45. Results are expressed as number of cells/7.5 ml of blood. Quality control was maintained via the CellSearch CTC Control Kit used to standardize reagents, instruments, and operator technique.
To quantify the fraction of apoptotic CTC, M30-positive CTC were detected integrating CTC assay with a specific mAb (M30 PEVIVA AB, Bromma, Sweden), recognizing the M30 neoepitope of cytokeratin 18 (CK18), analyzed with the fourth filter of the CellSearch System; results were expressed as the total number of CTC and M30-positive CTC per 7.5 mL of blood as described elsewhere.

[10] = system: cytokeratin 18 (M30, M65); experiment: M30/M65 Apoptosense assay, Group 2; assay type: in vivo, human; conditions: 14 days after ZA; baseline 335.3 U/L; p=0.039
Method: Blood samples were collected from patients at the same time-point as indicated for Group 2 into the K2EDTA anticoagulant tubes, and then centrifuged at 1,500 g for 10 min to obtain plasma. Levels of M30 and M65 were measured in blood samples drawn at 8 am before starting ZA administration and thereafter at 48 hours and at 14 days after the initial treatment (FIG. 9).
M30 and M65 measurements were tested in triplicate accordingly to the manufacturers' instructions (PEVIVA AB, Bromma, Sweden) as previously described in detail.
The M30 is a biomarker assay for the quantitative determination of caspase-cleaved cytokeratin 18 (CK18) released from apoptotic carcinoma cells into blood and may estimate the tumour response to the treatment. Total CK18 (cleaved and non cleaved) is detected by M65. The levels of M30 and M65 were determined on blood samples of metastatic breast cancer patients (Group 2) collected at baseline, at 48 hours and at 14 days after ZA administration at the same time point of CTCs evaluation to assess apoptosis and cell death induced by the treatment. […] M65 levels were statistically significant higher after drug administration (14 days) when compared to the baseline (370.69 U/L versus 335.3 U/L; range 174.2-1646.5 versus 113.7-596.4; p=0.039).

[11] = Treatment tolerability of single-dose ZA; assay type: in vivo, human
Method: as §2, with “Patients received a single dose of 4 mg diluted in 100 ml saline, intravenously, in about 15 mins of ZA without any other active concomitant treatments (i.e chemotherapy or endocrine therapy) (Groups 1 and 2). In” for “In”
Patients were evaluated by physical examination, and blood samples were obtained for laboratory analysis.

[12] = system: breast cancer T2-4, N 0-1, M0; experiment: Early response studies: RNA Disruption (RDI) 15 days after initiation of therapy; assay type: in vivo, human
Description: The Limit of Detection for RDI s RDI=0.3. RDI=1.5, 5 times the Level of Detection, was used as a provisional baseline cut off between nonresponders and responders.

[13] = cited from earlier work

Compound: CC(=O)O[C@H]1C(=O)[C@@]2(C)[C@H]([C@H](OC(=O)c3ccccc3)[C@]3(O)C[C@H](OC(=O)[C@H](O)[C@@H](NC(=O)c4ccccc4)c4ccccc4)C(C)=C1C3(C)C)[C@]1(OC(C)=O)CO[C@@H]1C[C@@H]2O [paclitaxel]
- response of cells in culture to the agent [1]: RNA disruption

Compound: COc1cccc2c1C(=O)c1c(O)c3c(c(O)c1C2=O)C[C@@](O)(C(=O)CO)C[C@@H]3O[C@H]1C[C@H](N)[C@@H](O)[C@H](C)O1 [epirubicin]
- electropherogram pattern ([1]; 20 μM in 50% media, 24 hours, 37° C.): intermediate bands between the 18S and 28S peaks
- response of cells in culture to the agent [1]: RNA disruption
- concentration at which RNA Disruption is evident [2]: 0.5 mM

Compound: Cyclosporine A
- effect on docetaxel sensitivity [3]: restores sensitivity to docetaxel
- effect on docetaxel-induced RNA disruption (RDI) [4]: restored docetaxel's ability to induce RNA disruption

Compound: Q-DEVD-OPH
- effect of caspase inhibitor on docetaxel-induced RNA disruption [1]: reduces the loss of 28S and 18S bands at 72 hr
- effect of caspase inhibitor on docetaxel-induced RNA disruption ([1]; listed as Q-DEVD-Oph): significantly reduced RNA disruption

Compound: CCN(CC)CCNC(=O)c1c(C)[nH]c(/C=C2\C(=O)Nc3ccc(F)cc32)c1C [Sunitinib]
- concentration at which RNA Disruption is evident [5]: 54 mM

Compound: O=P(O)(O)C(O)(Cn1ccnc1)P(=O)(O)O [ZA, zoledronic acid]
- specimens with increased bcl-2 ([6]; 1 of 31): 3.2%
- specimens with increased p53 ([6]; 1 of 31): 3.2%
- specimens with decreased p53 ([6]; 3 of 31): 9.7%
- patients with stable Ki67 expression ([6]; 5 of 33 patients, 14 days): 15.2%
- patients with increase in Ki67 expression ([6]; 6 of 33 patients, 14 days): 18.2%
- patients with decrease in Ki67 expression ([6]; 22 of 33 patients, 14 days): 66.6%
- specimens with unchanged p53 ([6]; 27 of 31): 87.1%
- specimens with decreased bcl-2 ([6]; 30 of 31): 96.8%
- median Ki67 ([6]; 14 days after ZA infusion, basal 18%, n=33, p=0.0032): 16%
- bcl-2 expression (median) ([6]; 14 days, baseline 100%, p<0.00001): 40%
- median CD31 expression ([6]; after treatment (14 days), basal 27%, p=0.0001): 16%
- average ATP value [7]: 216.57 pmol/mg protein
- RDI level [8]: 1.21
- median alive CTC ([9]; 48 hours after ZA infusion, basal 12, p=0.0012): 4 cells/7.5 ml of blood
- median CTC/M30+ve ([9]; 48 hours, p=0.7065): 2 cells/7.5 ml of blood
- median CTC/M30+ve ([9]; 14 days, p=0.018): 3 cells/7.5 ml of blood
- M65 level [10]: 370.69 U/L
- levels of bone-turnover markers (calcium, PTH, BALP, VIT-D3(1-25)) ([11]; in vivo): did not lead significant difference
- osteonecrosis of the jaw or other significant adverse events ([11]; in vivo): No patient developed
- tolerability ([11]; single 4 mg i.v. dose): well tolerated
- mean serum creatinine level ([11]; with treatment): did not vary
- Patients Responding (RDI above Baseline RDI = 1.5) [12]: 8 patients
- RDI Range, Responding Patients [12]: 1.8-8.9
- plasma concentration relative to Cmax ([13]; 24 h post-dose): < 1 % of Cmax
- dose retained in the skeleton or in fat tissue ([13]; in vivo): 60%
- dose excreted unmetabolized in the urine ([13]; within 24 hours after administration): up to 41%

Compound: N.N.O=C([O-])C1(C(=O)[O-])CCC1.[Pt+2] [carboplatin]
- response of cells in culture to the agent [1]: RNA disruption
